The text below walks through data of patent US8324209B2, “Pesticidal compositions” (Dow AgroSciences, LLC, priority 2008, dated 2012).

This assay relates to cotton aphid (Aphis gossypii). The assay can be described thus: Insecticidal test for cotton aphid in foliar spray assay on squash. The format is in vivo. The conditions noted are these: 200 ppm foliar spray on squash cotyledons; live aphids counted after 3 days; Corrected % Control (Abbott's formula); 4 replications. On the procedure: The compounds identified in the foregoing examples were tested against cotton aphid using procedures described hereinafter. Insecticidal Test for Cotton Aphid (Aphis gossypii) in Foliar Spray Assay Squash seedlings with fully expanded cotyledon leaves were trimmed to one cotyledon per plant and infested with cotton aphid (wingless adults and nymphs) 1 day prior to chemical application. Each plant was examined before chemical application to ensure uniform infestation (ca. 30-70 aphids per plant). Compounds (2 mg) were dissolved in 2 mL of acetone/methanol (1:1) solvent, forming stock solutions of 1000 ppm. The stock solutions were diluted 5× with 0.025% Tween 20 in H2O to obtain a solution at 200 ppm. A hand-held Devilbiss aspirator type sprayer was used to apply the spray solutions until runoff to both sides of the squash cotyledon leaves. Four plants (4 replications) were used for each compound. Reference plants (solvent check) were sprayed with the diluent only. Treated plants were held in a holding room for 3 days at approximately 23° C. and 40% relative humidity (RH) before the number of live aphids on each plant was recorded. Insecticidal activity was measured by Corrected % Control using Abbott's correction formula and presented in Table 1-Activity: Corrected % Control=100*(X−Y)/X • where X=No. of live aphids on solvent check plants • Y=No. of live aphids on treated plants Results are shown in Table 1.
As to `CC(c1cnc(Cl)nc1)S(C)(=O)=NC#N` (stereo not drawn) [Compound 1, [1-(2-chloropyrimidin-5-yl)ethyl](methyl)oxido-λ^4-sulfanylidenecyanamide], the “% Control at ppm, against cotton aphid on squash (foliar spray)” value is “A (80-100)”.
Under `CC(c1cnc(C(F)(F)F)nc1)S(C)(=O)=NC#N` (stereo not drawn) [Compound 3, methyl(oxido){1-[2-(trifluoromethyl)pyrimidin-5-yl]ethyl}-λ^4-sulfanylidenecyanamide] stands “A (80-100)”; under `CS(=O)(Cc1ccc(Cl)nn1)=NC#N` (stereo not drawn) [Compound 2, [(3-chloropyridazin-6-yl)methyl](methyl)oxido-λ^4-sulfanylidenecyanamide], “A (80-100)”.
